Read-outs that look alike come from different tables or passages of the source.
Experiments:
[1] = test system: Candida Albicans (ATCC 10231); assay: Antimicrobial activity test by tube dilution method, fungi; format: cell-based; conditions: for killing at 50000 µg/mL: Candida albicans, ATCC10231, 0.05 h, read-out: C. albicans % killing
Experimental: (§1) The antimicrobial activity of the compounds was determined by tube dilution method. Powdery compounds were taken in closed glass vials and were tested against Staphylococcus aureus (ATCC 6538) (bacteria) and Candida Albicans (ATCC 10231) (Fungi). 50 mg of the sample was taken in 1 ml of DMSO and the contact time for the sample was maintained as 3 minutes. The medium for microorganisms was Soyabean Casein Digest Agar for bacteria and Sabouraud's Dextrose Agar for fungi. The incubation time for bacteria was 2 days at 30-35° C. while for fungi was 3-5 days at 20-25° C.

[2] = test system: Staphylococcus aureus (ATCC 6538); assay: Antimicrobial activity test by tube dilution method, bacteria; format: cell-based; conditions: for killing at 50000 µg/mL: Staphylococcus aureus, ATCC6538, 0.05 h, read-out: S. aureus % killing
Experimental: as §1

[3] = 50 mg sample in 1 ml DMSO, contact time 3 minutes, Sabouraud's Dextrose Agar, 3-5 days at 20-25° C.
[4] = 50 mg sample in 1 ml DMSO, contact time 3 minutes, Soyabean Casein Digest Agar, 2 days at 30-35° C.

Row | SMILES | C. albicans Final Count [1, 3] | killing at 50000 µg/mL [1] [%] | S. aureus Final Count [2, 4] | killing at 50000 µg/mL [2] [%] | killing at 50000 µg/mL [1, 3] [%] | killing at 50000 µg/mL [2, 4] [%] | C. albicans % killing [1, 3] [%] | S. aureus % killing [2, 4] [%]
1 | O=C(N/N=C\c1ccc([N+](=O)[O-])cc1)C12CC3CC(C1)CC(C(=O)N/N=C/c1ccc([N+](=O)[O-])cc1)(C3)C2 [Compound 5a, Bis [N′-(4-nitro)benzylidene]adamantane-1,3-dicarbohydrazide] | 0 | 100 | 0 | 100 |  |  |  | 
2 | COc1cc(/C=N\NC(=O)C23CC4CC(C2)CC(C(=O)N/N=C/c2ccc(O)c(OC)c2)(C4)C3)ccc1O [Compound 5b, Bis [N′-(3-methoxy, 4-hydroxy)benzylidene]adamantane-1,3-dicarbohydrazide] | 0 |  | 1680000 |  | 100 | 90.3 |  | 
3 | C/C(=N/NC(=O)C12CC3CC(C1)CC(C(=O)N/N=C(\C)c1cc(C)ccc1O)(C3)C2)c1cc(C)ccc1O [Compound 5c, Bis [N′-(1-(2-hydroxy, 5-methyl phenyl)ethylidene)]adamantane-1,3-dicarbohydrazide] | 10 |  | 2980000 |  | 100 | 82.9 |  | 
4 | COc1ccc(/C=N\NC(=O)C23CC4CC(C2)CC(C(=O)N/N=C/c2ccc(OC)c(OC)c2)(C4)C3)cc1OC [Compound 5d] | 0 |  | 10300000 |  | 100 | 50.2 |  | 
5 | CCOc1ccc(/C(C)=N\NC(=O)C23CC4CC(C2)CC(C(=O)N/N=C(\C)c2ccc(OCC)cc2)(C4)C3)cc1 [Compound 5e, Bis [N′-(1-(4-ethoxy)ethylidene)]adamantane-1,3-dicarbohydrazide] | 0 |  | 16400000 |  | 100 | 16.8 |  | 
6 | O=C(N/N=C\c1ccc2ccccc2c1)C12CC3CC(C1)CC(C(=O)N/N=C/c1ccc4ccccc4c1)(C3)C2 [Compound 5f] | 0 |  | 16000000 |  | 100 | 20.4 |  | 
7 | O=C(N/N=C/c1ccc([N+](=O)[O-])o1)C12CC3CC(C1)CC(C(=O)N/N=C/c1ccc([N+](=O)[O-])o1)(C3)C2 [Compound 5g] | 0 | 100 | 10 | 100 |  |  |  | 
8 | COc1cc(/C=N\NC(=O)C23CC4CC(C2)CC(C(=O)N/N=C/c2cc(OC)c(O)c([N+](=O)[O-])c2)(C4)C3)cc([N+](=O)[O-])c1O [Compound 5h, Bis [N′-(3-nitro, 4-hydroxy, 5-methoxy)benzylidene]adamantane-1,3-dicarbohydrazide] | 0 | 100 | 0 | 100 |  |  |  | 
9 | Cc1ccc(/C=N/NC(=O)C23CC4CC(C2)CC(C(=O)N/N=C/c2ccc(C)cc2)(C4)C3)cc1 [Compound 5i, Bis[N′-(4-methyl)benzylidene]adamantane-1,3-dicarbohydrazide] | 0 |  | 3120000 |  | 100 | 85 |  | 
10 | O=C(N/N=C/c1ccc(O)cc1)C12CC3CC(C1)CC(C(=O)N/N=C/c1ccc(O)cc1)(C3)C2 [Compound 5j, Bis[N′-(4-hydroxy)benzylidene]adamantane-1,3-dicarbohydrazide] | 0 |  | 550000 |  | 100 | 97.2 |  | 
11 | C/C(=N\NC(=O)C12CC3CC(C1)CC(C(=O)N/N=C(\C)c1ccc(O)cc1)(C3)C2)c1ccc(O)cc1 [Compound 5k, Bis[N′-(1-(4-hydroxyphenyl)ethylidene)]adamantane-1,3-dicarbohydrazide] | 0 |  | 7500000 |  | 100 | 60.3 |  | 
12 | COc1cc(/C=N/NC(=O)C23CC4CC(C2)CC(C(=O)N/N=C/c2cc(Br)c(O)c(OC)c2)(C4)C3)cc(Br)c1O [Compound 5l, Bis[N′-(3-bromo,4hydroxy,5-methoxy)benzylidene]adamantane-1,3-dicarbohydrazide] | 0 |  | 0 |  | 100 | 100 |  | 
13 | O=C(N/N=C\c1cccs1)C12CC3CC(C1)CC(C(=O)N/N=C/c1cccs1)(C3)C2 [Compound 5m] | 0 |  | 1230000 |  | 100 | 93.4 |  | 
14 | CCOc1ccc(/C=N/NC(=O)C23CC4CC(C2)CC(C(=O)N/N=C/c2ccc(OCC)cc2)(C4)C3)cc1 [Compound 5n, Bis[N′-(4-ethoxy)benzylidene]adamantane-1,3-dicarbohydrazide] | 0 |  | 10 |  | 100 | 100 |  | 
15 | O=C(NN=Cc1ccc(Cl)c([N+](=O)[O-])c1)C12CC3CC(C1)CC(C(=O)NN=Cc1ccc(Cl)c([N+](=O)[O-])c1)(C3)C2 [Compound 5o, Bis[N′-(3-nitro,4-chloro)benzylidene]adamantane-1,3-dicarbohydrazide] | 0 |  | 18400000 |  |  |  | 100.00 | 9.36
16 | O=C(N/N=C/c1ccc(Br)cc1)C12CC3CC(C1)CC(C(=O)N/N=C/c1ccc(Br)cc1)(C3)C2 [Compound 5p, Bis[N′-(4-bromo)benzylidene]adamantane-1,3-dicarbohydrazide] | 0 |  | 2310000 |  | 100 | 88.7 |  | 
17 | COc1ccc(/C=N/NC(=O)C23CC4CC(C2)CC(C(=O)N/N=C/c2ccc(OC)cc2)(C4)C3)cc1 [Compound 5q, Bis[N′-(4-methoxy)benzylidene]adamantane-1,3-dicarbohydrazide] | 0 |  | 14400000 |  | 100 | 26.1 |  | 
18 | CC(=NNC(=O)C12CC3CC(C1)CC(C(=O)NN=C(C)c1ccc(Cl)c([N+](=O)[O-])c1)(C3)C2)c1ccc(Cl)c([N+](=O)[O-])c1 [Compound 5r, Bis[N′-(1-(3-nitro,4-chloro)ethylidene)]adamantane-1,3-dicarbohydrazide] | 0 |  | 5100000 |  |  |  | 100.00 | 74.24

— US20250066288A1, “DIHYDRAZIDE-DIHYDRAZONE COMPOUNDS WITH ADAMANTYL MOIETY AND A PROCESS FOR SYNTHESIS OF THE SAME” (priority 2022, published 2025)
